Measurements: the supplement of paper PMC11208160
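Also: IS621 bridge recombinase in Escherichia coli cells against a fixed T5 target plasmid.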

Assay: recombinant UMI read abundance after kanamycin selection (control-corrected) (log10(CPM+1)); higher = more efficient recombination; extreme values may be limits of the assay; sequences stand for … in AGTGCAGAGAAAATCGGCCAGTTTTCTCTGCCTGCAGTCCGCATGCCGTGGGACCCCTTGGGTTCTAACCTGTTGCCTAGATTTATGCAGCGGACTGCCTTTCTCCCAAAGTGATAAACCGG…AGGTTGGTTTCACT; site = the 11-nt donor
Summary of the method: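 In Escherichia coli, a pool of donor and donor-binding-loop pairs, each with a 12-nt UMI, was tested for the IS621 bridge recombinase. Plating was on IPTG (0.07 mM) plus kanamycin, or without selection, in two replicates. Recombinant UMIs were amplified by PCR across the donor–target junction and sequenced, and counts were reported as log10(CPM+1) after averaging and control-derived scaling.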
In the case of “CGCCCTCCATGGACCGGTTTTCCCGGTAATCCGTATTTGAT (site CGCCCTCCTAT)”, the “recombinant UMI read abundance (log10)” value was 0.51.
With “CGCCGTACATGGACCGGTTTTCCCGGTAATCCGTATTTGCG (site CGCCGTACTAG)” the “recombinant UMI read abundance (log10)” value was 0.
For “CGCCGTACATGGACCGGTTTTCCCGGTAATCCGTATTTGCG (site CGCCGTACTCG)”, the “recombinant UMI read abundance (log10)” value was 1.13.
In the case of “CGCCGTACATGGACCGGTTTTCCCGGTAATCCGTATTTGCG (site CGCCGTACTGG)”, the “recombinant UMI read abundance (log10)” value was 0.
With “CGCCGTACATGGACCGGTTTTCCCGGTAATCCGTATTTGCG (site CGCCGTACTTG)” the “recombinant UMI read abundance (log10)” value was 0.00693.
For “CGCCTAGCATGGACCGGTTTTCCCGGTAATCCGTATTTGTT (site AGCCTAGCTAA)”, the “recombinant UMI read abundance (log10)” value was 0.00606.
For “CGCCTAGCATGGACCGGTTTTCCCGGTAATCCGTATTTGTT (site CGCCTAGCTAA)”, the “recombinant UMI read abundance (log10)” value was 0.
In the case of “CGCCTAGCATGGACCGGTTTTCCCGGTAATCCGTATTTGTT (site GGCCTAGCTAA)”, the “recombinant UMI read abundance (log10)” value was 0.00975.
In the case of “CGCCTAGCATGGACCGGTTTTCCCGGTAATCCGTATTTGTT (site TGCCTAGCTAA)”, the “recombinant UMI read abundance (log10)” value was 0.00877.
With “CGCGATTCATGGACCGGTTTTCCCGGTAATCCGTATTTGGA (site CGCGATTCTTC)” the “recombinant UMI read abundance (log10)” value was 2.31.
With “CGCGCGCCATGGACCGGTTTTCCCGGTAATCCGTATTTGTT (site CGCGCGCCTAA)” the “recombinant UMI read abundance (log10)” value was 0.0124.
For “CGCGGCCCATGGACCGGTTTTCCCGGTAATCCGTATTTGTT (site CACGGCCCTAA)”, the “recombinant UMI read abundance (log10)” value was 0.167.
In the case of “CGCGGCCCATGGACCGGTTTTCCCGGTAATCCGTATTTGTT (site CCCGGCCCTAA)”, the “recombinant UMI read abundance (log10)” value was 0.00728.
With “CGCGGCCCATGGACCGGTTTTCCCGGTAATCCGTATTTGTT (site CGCGGCCCTAA)” the “recombinant UMI read abundance (log10)” value was 0.202.
With “CGCGGCCCATGGACCGGTTTTCCCGGTAATCCGTATTTGTT (site CTCGGCCCTAA)” the “recombinant UMI read abundance (log10)” value was 0.00821.
For “CGCGGCTCATGGACCGGTTTTCCCGGTAATCCGTATTTGGC (site CGCGGCTCTGC)”, the “recombinant UMI read abundance (log10)” value was 2.33.
With “CGCGGTCCATGGACCGGTTTTCCCGGTAATCCGTATTTGCA (site CACGGTCCTTG)” the “recombinant UMI read abundance (log10)” value was 0.
In the case of “CGCGGTCCATGGACCGGTTTTCCCGGTAATCCGTATTTGCA (site CCCGGTCCTTG)”, the “recombinant UMI read abundance (log10)” value was 0.3.
For “CGCGGTCCATGGACCGGTTTTCCCGGTAATCCGTATTTGCA (site CGCGGTCCTTG)”, the “recombinant UMI read abundance (log10)” value was 1.12.
In the case of “CGCGGTCCATGGACCGGTTTTCCCGGTAATCCGTATTTGCA (site CTCGGTCCTTG)”, the “recombinant UMI read abundance (log10)” value was 0.
For “CGCTAGGCATGGACCGGTTTTCCCGGTAATCCGTATTTGAC (site CGCTAGGCTGT)”, the “recombinant UMI read abundance (log10)” value was 1.08.
For “CGCTCATCATGGACCGGTTTTCCCGGTAATCCGTATTTGGT (site CGATCATCTAG)”, the “recombinant UMI read abundance (log10)” value was 0.393.
For “CGCTCATCATGGACCGGTTTTCCCGGTAATCCGTATTTGGT (site CGCTCATCTAC)”, the “recombinant UMI read abundance (log10)” value was 1.17.
With “CGGAAGACATGGACCGGTTTTCCCGGTAATCCGTATTTGCA (site AGGAAGACTTG)” the “recombinant UMI read abundance (log10)” value was 0.742.
With “CGGAAGACATGGACCGGTTTTCCCGGTAATCCGTATTTGCA (site CGGAAGACTTG)” the “recombinant UMI read abundance (log10)” value was 1.73.
With “CGGAAGACATGGACCGGTTTTCCCGGTAATCCGTATTTGCA (site GGGAAGACTTG)” the “recombinant UMI read abundance (log10)” value was 0.
For “CGGAAGACATGGACCGGTTTTCCCGGTAATCCGTATTTGCA (site TGGAAGACTTG)”, the “recombinant UMI read abundance (log10)” value was 0.259.
For “CGGAATACATGGACCGGTTTTCCCGGTAATCCGTATTTGTC (site CGGAATACTGA)”, the “recombinant UMI read abundance (log10)” value was 1.64.
With “CGGAATACATGGACCGGTTTTCCCGGTAATCCGTATTTGTC (site CGGAATCCTAA)” the “recombinant UMI read abundance (log10)” value was 0.0129.
For “CGGAATCCATGGACCGGTTTTCCCGGTAATCCGTATTTGGG (site CGGAATCCTAA)”, the “recombinant UMI read abundance (log10)” value was 0.
In the case of “CGGAATCCATGGACCGGTTTTCCCGGTAATCCGTATTTGGG (site CGGAATCCTCC)”, the “recombinant UMI read abundance (log10)” value was 0.0126.
In the case of “CGGAATTCATGGACCGGTTTTCCCGGTAATCCGTATTTGCT (site CGGAATCCTAA)”, the “recombinant UMI read abundance (log10)” value was 0.00849.
With “CGGAATTCATGGACCGGTTTTCCCGGTAATCCGTATTTGCT (site CGGAATTCTAG)” the “recombinant UMI read abundance (log10)” value was 2.45.
For “CGGACATCATGGACCGGTTTTCCCGGTAATCCGTATTTGAT (site CGGACATCTAA)”, the “recombinant UMI read abundance (log10)” value was 0.359.
In the case of “CGGACATCATGGACCGGTTTTCCCGGTAATCCGTATTTGAT (site CGGACATCTAC)”, the “recombinant UMI read abundance (log10)” value was 0.605.
In the case of “CGGACATCATGGACCGGTTTTCCCGGTAATCCGTATTTGAT (site CGGACATCTAG)”, the “recombinant UMI read abundance (log10)” value was 0.
For “CGGACATCATGGACCGGTTTTCCCGGTAATCCGTATTTGAT (site CGGACATCTAT)”, the “recombinant UMI read abundance (log10)” value was 1.84.
For “CGGACATCATGGACCGGTTTTCCCGGTAATCCGTATTTGCC (site CGGACATCTAG)”, the “recombinant UMI read abundance (log10)” value was 0.305.
For “CGGACATCATGGACCGGTTTTCCCGGTAATCCGTATTTGCC (site CGGACATCTCG)”, the “recombinant UMI read abundance (log10)” value was 0.00908.
With “CGGACATCATGGACCGGTTTTCCCGGTAATCCGTATTTGCC (site CGGACATCTGG)” the “recombinant UMI read abundance (log10)” value was 2.66.
For “CGGACATCATGGACCGGTTTTCCCGGTAATCCGTATTTGCC (site CGGACATCTTG)”, the “recombinant UMI read abundance (log10)” value was 0.
With “CGGACATCATGGACCGGTTTTCCCGGTAATCCGTATTTGCT (site AGGACATCTAG)” the “recombinant UMI read abundance (log10)” value was 0.695.
In the case of “CGGACATCATGGACCGGTTTTCCCGGTAATCCGTATTTGCT (site CAGACATCTAG)”, the “recombinant UMI read abundance (log10)” value was 1.53.
For “CGGACATCATGGACCGGTTTTCCCGGTAATCCGTATTTGCT (site CCGACATCTAG)”, the “recombinant UMI read abundance (log10)” value was 0.954.
In the case of “CGGACATCATGGACCGGTTTTCCCGGTAATCCGTATTTGCT (site CGAACATCTAG)”, the “recombinant UMI read abundance (log10)” value was 1.51.
In the case of “CGGACATCATGGACCGGTTTTCCCGGTAATCCGTATTTGCT (site CGCACATCTAG)”, the “recombinant UMI read abundance (log10)” value was 0.
With “CGGACATCATGGACCGGTTTTCCCGGTAATCCGTATTTGCT (site CGGAAATCTAG)” the “recombinant UMI read abundance (log10)” value was 0.
For “CGGACATCATGGACCGGTTTTCCCGGTAATCCGTATTTGCT (site CGGACAACTAG)”, the “recombinant UMI read abundance (log10)” value was 0.552.
For “CGGACATCATGGACCGGTTTTCCCGGTAATCCGTATTTGCT (site CGGACACCTAG)”, the “recombinant UMI read abundance (log10)” value was 0.
For “CGGACATCATGGACCGGTTTTCCCGGTAATCCGTATTTGCT (site CGGACAGCTAG)”, the “recombinant UMI read abundance (log10)” value was 0.00346.
For “CGGACATCATGGACCGGTTTTCCCGGTAATCCGTATTTGCT (site CGGACATCTAA)”, the “recombinant UMI read abundance (log10)” value was 0.
For “CGGACATCATGGACCGGTTTTCCCGGTAATCCGTATTTGCT (site CGGACATCTAC)”, the “recombinant UMI read abundance (log10)” value was 0.
For “CGGACATCATGGACCGGTTTTCCCGGTAATCCGTATTTGCT (site CGGACATCTAG)”, the “recombinant UMI read abundance (log10)” value was 2.42.
With “CGGACATCATGGACCGGTTTTCCCGGTAATCCGTATTTGCT (site CGGACATCTAT)” the “recombinant UMI read abundance (log10)” value was 1.21.
With “CGGACATCATGGACCGGTTTTCCCGGTAATCCGTATTTGCT (site CGGACATCTCG)” the “recombinant UMI read abundance (log10)” value was 0.0134.
For “CGGACATCATGGACCGGTTTTCCCGGTAATCCGTATTTGCT (site CGGACATCTGG)”, the “recombinant UMI read abundance (log10)” value was 0.0128.
With “CGGACATCATGGACCGGTTTTCCCGGTAATCCGTATTTGCT (site CGGACATCTTG)” the “recombinant UMI read abundance (log10)” value was 0.756.
With “CGGACATCATGGACCGGTTTTCCCGGTAATCCGTATTTGCT (site CGGACCTCTAG)” the “recombinant UMI read abundance (log10)” value was 0.303.
In the case of “CGGACATCATGGACCGGTTTTCCCGGTAATCCGTATTTGCT (site CGGACGTCTAG)”, the “recombinant UMI read abundance (log10)” value was 0.
With “CGGACATCATGGACCGGTTTTCCCGGTAATCCGTATTTGCT (site CGGACTTCTAG)” the “recombinant UMI read abundance (log10)” value was 0.255.
With “CGGACATCATGGACCGGTTTTCCCGGTAATCCGTATTTGCT (site CGGAGATCTAG)” the “recombinant UMI read abundance (log10)” value was 0.
In the case of “CGGACATCATGGACCGGTTTTCCCGGTAATCCGTATTTGCT (site CGGATATCTAG)”, the “recombinant UMI read abundance (log10)” value was 1.9.
For “CGGACATCATGGACCGGTTTTCCCGGTAATCCGTATTTGCT (site CGGCCATCTAG)”, the “recombinant UMI read abundance (log10)” value was 0.0134.
For “CGGACATCATGGACCGGTTTTCCCGGTAATCCGTATTTGCT (site CGGGCATCTAG)”, the “recombinant UMI read abundance (log10)” value was 0.
For “CGGACATCATGGACCGGTTTTCCCGGTAATCCGTATTTGCT (site CGGTCATCTAG)”, the “recombinant UMI read abundance (log10)” value was 0.746.
For “CGGACATCATGGACCGGTTTTCCCGGTAATCCGTATTTGCT (site CGTACATCTAG)”, the “recombinant UMI read abundance (log10)” value was 1.54.
For “CGGACATCATGGACCGGTTTTCCCGGTAATCCGTATTTGCT (site CTGACATCTAG)”, the “recombinant UMI read abundance (log10)” value was 1.34.
In the case of “CGGACATCATGGACCGGTTTTCCCGGTAATCCGTATTTGCT (site GGGACATCTAG)”, the “recombinant UMI read abundance (log10)” value was 0.
For “CGGACATCATGGACCGGTTTTCCCGGTAATCCGTATTTGCT (site TGGACATCTAG)”, the “recombinant UMI read abundance (log10)” value was 0.773.
With “CGGACGACATGGACCGGTTTTCCCGGTAATCCGTATTTGGT (site CGGACGACTAC)” the “recombinant UMI read abundance (log10)” value was 1.25.
For “CGGACTGCATGGACCGGTTTTCCCGGTAATCCGTATTTGTT (site CGGAATCCTAA)”, the “recombinant UMI read abundance (log10)” value was 0.
With “CGGACTGCATGGACCGGTTTTCCCGGTAATCCGTATTTGTT (site CGGACTGCTAA)” the “recombinant UMI read abundance (log10)” value was 2.12.
In the case of “CGGACTTCATGGACCGGTTTTCCCGGTAATCCGTATTTGCT (site CGGACATCTAG)”, the “recombinant UMI read abundance (log10)” value was 0.905.
With “CGGACTTCATGGACCGGTTTTCCCGGTAATCCGTATTTGCT (site CGGACCTCTAG)” the “recombinant UMI read abundance (log10)” value was 1.61.
In the case of “CGGACTTCATGGACCGGTTTTCCCGGTAATCCGTATTTGCT (site CGGACGTCTAG)”, the “recombinant UMI read abundance (log10)” value was 0.
